Laboratory results reported in ChEMBL document CHEMBL1955755, “Novel imidazo[2,1-b][1,3,4]thiadiazole carrying rhodanine-3-acetic acid as potential antitubercular agents” (2012).
Values after ≈ are worked out from the molar mass of the structure shown.

Tested on: Mycobacterium tuberculosis
Test: Antitubercular activity against Mycobacterium tuberculosis H37Rv ATCC 27294 after 5 days by microplate alamar blue assay
Type: functional
Conditions: H37Rv ATCC 27294, 120 h

SMILES	MIC
NNC(=O)c1ccncc1 [ISONIAZID]	1.56 µg/mL (≈ 11.4 µM)
O=C1NC(=S)S/C1=C\c1c(-c2ccc([N+](=O)[O-])cc2)nc2sc(C(F)(F)F)nn12	50 µg/mL (≈ 109 µM)
Cc1ccc(-c2nc3sc(C(F)(F)F)nn3c2/C=C2\SC(=S)NC2=O)cc1	6.25 µg/mL (≈ 14.7 µM)
O=C(O)CN1C(=O)/C(=C/c2c(-c3ccc(F)cc3)nc3sc(C(F)(F)F)nn23)SC1=S	3.12 µg/mL (≈ 6.39 µM)
Cc1ccc(-c2nc3sc(C(F)(F)F)nn3c2/C=C2\SC(=S)N(CC(=O)O)C2=O)cc1	3.12 µg/mL (≈ 6.44 µM)
O=C(O)CN1C(=O)/C(=C/c2c(-c3ccccc3)nc3sc(C(F)(F)F)nn23)SC1=S	6.25 µg/mL (≈ 13.3 µM)
O=C(O)CN1C(=O)/C(=C/c2c(-c3ccc(Br)cc3)nc3sc(C(F)(F)F)nn23)SC1=S	3.12 µg/mL (≈ 5.68 µM)
O=C1NC(=S)S/C1=C\c1c(-c2ccccc2)nc2sc(C(F)(F)F)nn12	6.25 µg/mL (≈ 15.2 µM)
O=C1NC(=S)S/C1=C\c1c(-c2ccc(F)cc2)nc2sc(C(F)(F)F)nn12	6.25 µg/mL (≈ 14.5 µM)
O=C1NC(=S)S/C1=C\c1c(-c2ccc(Cl)cc2)nc2sc(C(F)(F)F)nn12	50 µg/mL (≈ 112 µM)
O=C1NC(=O)/C(=C/c2c(-c3ccc(Br)cc3)nc3sc(C(F)(F)F)nn23)S1	25 µg/mL (≈ 52.6 µM)
COc1ccc(-c2nc3sc(C(F)(F)F)nn3c2/C=C2\SC(=S)NC2=O)cc1	25 µg/mL (≈ 56.5 µM)
O=C1NC(=O)/C(=C/c2c(-c3ccc([N+](=O)[O-])cc3)nc3sc(C(F)(F)F)nn23)S1	50 µg/mL (≈ 113 µM)
O=C1NC(=S)S/C1=C\c1c(-c2ccc(Br)cc2)nc2sc(C(F)(F)F)nn12	3.12 µg/mL (≈ 6.35 µM)
O=C1NC(=O)/C(=C/c2c(-c3ccc(Cl)cc3)nc3sc(C(F)(F)F)nn23)S1	3.12 µg/mL (≈ 7.24 µM)
O=C(O)CN1C(=O)/C(=C/c2c(-c3ccc(Cl)cc3)nc3sc(C(F)(F)F)nn23)SC1=S	3.12 µg/mL (≈ 6.18 µM)
O=C(O)CN1C(=O)/C(=C/c2c(-c3ccc([N+](=O)[O-])cc3)nc3sc(C(F)(F)F)nn23)SC1=S	25 µg/mL (≈ 48.5 µM)
O=C1NC(=O)/C(=C/c2c(-c3ccc(F)cc3)nc3sc(C(F)(F)F)nn23)S1	25 µg/mL (≈ 60.3 µM)
COc1ccc(-c2nc3sc(C(F)(F)F)nn3c2/C=C2\SC(=O)NC2=O)cc1	25 µg/mL (≈ 58.6 µM)
Cc1ccc(-c2nc3sc(C(F)(F)F)nn3c2/C=C2\SC(=O)NC2=O)cc1	25 µg/mL (≈ 60.9 µM)
O=C1NC(=O)/C(=C/c2c(-c3ccccc3)nc3sc(C(F)(F)F)nn23)S1	25 µg/mL (≈ 63.1 µM)
COc1ccc(-c2nc3sc(C(F)(F)F)nn3c2/C=C2\SC(=S)N(CC(=O)O)C2=O)cc1	1.56 µg/mL (≈ 3.12 µM)
CO[C@H]1/C=C/O[C@@]2(C)Oc3c(C)c(O)c4c(O)c(c(/C=N/N5CCN(C)CC5)c(O)c4c3C2=O)NC(=O)/C(C)=C\C=C\[C@H](C)[C@H](O)[C@@H](C)[C@@H](O)[C@@H](C)[C@H](OC(C)=O)[C@@H]1C [RIFAMPIN]	0.78 µg/mL (≈ 0.948 µM)
